According to patent publication US20040053962A1, “Methods for inhibiting proliferation and inducing apoptosis in cancer cells” (priority 2003, published 2004):

Assays:
[1] = test system: pancreatic, colonic, and breast cancer cell lines; assay: Proliferation by thymidine incorporation and cell number, all lines studied; type: cell-based
Experimental: (§1) DNA synthesis by [^3H]-Thymidine incorporation. Cells were plated in 12 or 24-well plates. After reaching 70% confluence, they were incubated in serum-free media for 24 hours, which was then replaced with fresh serum-free media with or without the appropriate concentration of leukotriene B4 receptor antagonist LY293111 (62.5-1000 nM), LTB4 (100-400 nM), or both. After the appropriate period of culture, cellular DNA synthesis was assayed by adding 0.5 μCi/well of [^3H]-methyl-thymidine and incubating for another 2 hours. Then, the cells were washed twice with PBS, fixed with 10% trichloroacetic acid (“TCA”) for 30 minutes, and solubilized by adding 0.4 M NaOH to each well. Radioactivity, indicating incorporation of ^3H-thymidine into DNA, was measured by adding a scintillation cocktail and counting on a scintillation counter (LKB RackBeta, Wallac, Turku, Finland)
Cell proliferation assay. Pancreatic cancer cells were seeded into 24-well microplates and incubated at 37° C. After 24 hours, cells were cultured in serum-free media with or without 250 nM LY293111 for 24, 48, and 72 hours. At the end of each time period, the cells were trypsinized to produce a single cell suspension, and the cell number in each well was determined using a Zi-Coulter Counter (Luton, Bedfordsire, United Kingdom). […]

[2] = test system: AsPC-1 pancreatic cancer cell line; assay: [3H]-thymidine incorporation (DNA synthesis), AsPC-1; type: cell-based, human; settings: mean±SEM; for proliferation (thymidine incorporation), % control: 24 hours
Experimental: (§2) Cell culture. The following pancreatic cancer cell lines were used: MiaPaCa-2 and PANC-1 (poorly-differentiated); Capan-1 and Capan-2 (well-differentiated); and HPAF and AsPC-1 (pleomorphic). These were purchased from American Type Culture Collection (Rockville, Md.). PANC-1 and MiaPaCa-2 were grown in DMEM media; HPAF and AsPC-1 were grown in MEM media; and Capan-1 and Capan-2 were grown in-McCoy's media. Media were supplemented with 10% FBS, and the cells were grown as monolayers in a humidified atmosphere of […] and 5% CO2 at 37° C. The cells were regularly seeded into 75 cm^2 flask with media changed every other day. For experiments, cells were grown to 80% confluence, digested with trypsin-EDTA, and plated either in 12 or 24-well plates at a concentration of 50,000/ml, as appropriate.
as §1

[3] = test system: pancreatic cancer cell lines; assay: Proliferation of pancreatic cancer cell lines (summary statement); type: cell-based
Experimental: as §2
DNA synthesis by [^3H]-Thymidine incorporation. Cells were plated in 12 or 24-well plates. After reaching 70% confluence, they were incubated in serum-free media for 24 hours, which was then replaced with fresh serum-free media with or without the appropriate concentration of leukotriene B4 receptor antagonist LY293111 (62.5-1000 nM), LTB4 (100-400 nM), or both. […] Radioactivity, indicating incorporation of ^3H-thymidine into DNA, was measured by adding a scintillation cocktail and counting on a scintillation counter (LKB RackBeta, Wallac, Turku, Finland)

[4] = test system: MiaPaCa-2 pancreatic cancer cells; assay: Cell proliferation assay (cell number, Coulter counter); type: cell-based; settings: 500 nM for 24, 48, and 72 hours (FIG. 2)
Experimental: as §2
Cell proliferation assay. Pancreatic cancer cells were seeded into 24-well microplates and incubated at 37° C. […] At the end of each time period, the cells were trypsinized to produce a single cell suspension, and the cell number in each well was determined using a Zi-Coulter Counter (Luton, Bedfordsire, United Kingdom).

[5] = test system: MiaPaCa-2 pancreatic cancer cell line; assay: [3H]-thymidine incorporation (DNA synthesis), MiaPaCa-2; type: cell-based
Experimental: as §2, §1

[6] = test system: AsPc-1 human pancreatic tumor cell line xenograft; assay: AsPc-1 xenograft tumor growth in athymic mice; type: in vivo; settings: 0.01% LY293111 in the drinking water, started four days after s.c. injection of 3 million AsPc-1 cells
Experimental: Athymic mice received a subcutaneous injection of 3 million cancer cells in 50 μl of serum-free media. The highly malignant and aggressive pancreatic tumor cell line, AsPc-1, was used in this experiment. The tumors were allowed to establish and grow for four days prior to treatment with 0.01% LY293111 in the drinking water.

With `CCCc1c(OCCCOc2cc(O)c(-c3ccc(F)cc3)cc2CC)cccc1Oc1ccccc1C(=O)O` [LY293111, 2-(2-propyl-3-(3-(2-ethyl-4-(4-fluorophenyl)-5-hydroxyphenoxy)propoxy)-phenoxy)benzoic acid] as the molecule, how does the “effect on proliferation (thymidine incorporation and cell number)” value [1] read?
The value was “profound concentration-dependent and time-dependent inhibition of proliferation”.

And the “proliferation (thymidine incorporation), % control” value ([2]; AsPC-1, LY293111 62.5 nM)?
Its value is 90.6 ± 4.6 % control.

What about the “proliferation (thymidine incorporation), % control” value ([2]; AsPC-1, LY293111 125 nM) of the same molecule?
Its value is 72.8 ± 5.4 % control.

And the “proliferation (thymidine incorporation), % control” value ([2]; AsPC-1, LY293111 250 nM)?
Its value is 44.5 ± 7.7 % control.

And the “proliferation, % control (time course)” value ([2]; AsPC-1, LY293111 500 nM, 6 h)?
The value was 65.8 ± 7.7 % control.

And the “proliferation, % control (time course)” value ([2]; AsPC-1, LY293111 500 nM, 12 h)?
Its value is 44.7 ± 4.1 % control.

What about the “proliferation, % control (time course)” value ([2]; AsPC-1, LY293111 500 nM, 24 h) of the same molecule?
The value was 16.7 ± 2.1 % control.

What about the “proliferation (thymidine incorporation), % control” value ([2]; AsPC-1, LY293111 500 nM) of the same molecule?
The value was 18.4 ± 6.9 % control.

What about the “proliferation (thymidine incorporation), % control” value ([2]; AsPC-1, LY293111 1000 nM) of the same molecule?
Its value is 7.3 ± 1.2 % control.

And the inhibition at 0.25 µM ([3]; LY293111 250 nM)?
The inhibition at 0.25 µM was no less than 50%.

And the inhibition at 1 µM ([3]; LY293111 1000 nM)?
Its inhibition at 1 µM is greater than 95%.

And the “effect on cell number” value [4]?
Its value is “inhibition”.

What about the decrease of proliferation ([5]; MiaPaCa-2 (FIG. 6A), LY293111 250 nM, 24 hours) of the same molecule?
The decrease of proliferation was 50%.

And the “proliferation with combination of LTB4 and LY293111” value ([5]; MiaPaCa-2, 250 nM LY293111 + 100 nM LTB4, 24 hours)?
Its value is “restored to almost the control level”.

What about the “effect on thymidine incorporation” value ([5]; MiaPaCa-2, concentration-dependent (FIG. 1A, P<0.0001) and time-dependent (FIG. 1B, P<0.0001)) of the same molecule?
Its value is “inhibition of thymidine incorporation”.

And the “tumor size vs control group” value [6]?
The value was “smaller tumors”.
